# The kinase profiling compilation of Christmann-Franck et al. (2016)
# Experiments:
# Assay in all cases: radiometric filter-binding kinase assay, Kinase HotSpot
# Conditions in all cases: compound 0.5 µM; ATP 10 µM
# [1] = target: STK11 (human) (UniProt Q15831)
# [2] = target: INSRR (human) (UniProt P14616)
# [3] = target: IRAK4 (human) (UniProt Q9NWZ3)
# [4] = target: MKNK2 (human) (UniProt Q9HBH9)
# [5] = target: DAPK2 (human) (UniProt Q9UIK4)
# [6] = target: SLK (human) (UniProt Q9H2G2)
# [7] = target: CLK1 (human) (UniProt P49759)
# [8] = target: CAMK2A (human) (UniProt Q9UQM7)
# CAMK2A (human), sequence (Q9UQM7 whole entry, looked up): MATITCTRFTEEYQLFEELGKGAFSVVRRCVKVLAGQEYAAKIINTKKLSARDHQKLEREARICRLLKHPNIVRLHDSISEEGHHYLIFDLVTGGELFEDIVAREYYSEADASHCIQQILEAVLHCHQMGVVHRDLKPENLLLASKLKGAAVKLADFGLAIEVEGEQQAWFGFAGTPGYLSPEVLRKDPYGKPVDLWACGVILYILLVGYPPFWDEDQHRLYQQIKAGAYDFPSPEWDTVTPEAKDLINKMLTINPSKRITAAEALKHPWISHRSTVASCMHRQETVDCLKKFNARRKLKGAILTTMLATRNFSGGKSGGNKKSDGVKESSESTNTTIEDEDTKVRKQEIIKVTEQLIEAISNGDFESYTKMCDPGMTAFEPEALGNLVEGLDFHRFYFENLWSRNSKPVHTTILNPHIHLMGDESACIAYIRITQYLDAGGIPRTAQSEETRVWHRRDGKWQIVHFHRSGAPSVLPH
# [9] = target: TGFBR2 (human) (UniProt P37173)
# [10] = target: TYRO3 (human) (UniProt Q06418)
# [11] = target: FLT3 (human) (UniProt P36888)
# [12] = target: EPHB2 (human) (UniProt P29323)
# [13] = target: STK3 (human) (UniProt Q13188)
# [14] = target: AKT2 (human) (UniProt P31751)
# [15] = target: PRKCB2 (human) (UniProt P05771)
# [16] = target: PRKG2 (human) (UniProt Q13237)
# [17] = target: STK10 (human) (UniProt O94804)
# [18] = target: CAMK2B (human) (UniProt Q13554)
# CAMK2B (human), sequence (Q13554 whole entry, looked up): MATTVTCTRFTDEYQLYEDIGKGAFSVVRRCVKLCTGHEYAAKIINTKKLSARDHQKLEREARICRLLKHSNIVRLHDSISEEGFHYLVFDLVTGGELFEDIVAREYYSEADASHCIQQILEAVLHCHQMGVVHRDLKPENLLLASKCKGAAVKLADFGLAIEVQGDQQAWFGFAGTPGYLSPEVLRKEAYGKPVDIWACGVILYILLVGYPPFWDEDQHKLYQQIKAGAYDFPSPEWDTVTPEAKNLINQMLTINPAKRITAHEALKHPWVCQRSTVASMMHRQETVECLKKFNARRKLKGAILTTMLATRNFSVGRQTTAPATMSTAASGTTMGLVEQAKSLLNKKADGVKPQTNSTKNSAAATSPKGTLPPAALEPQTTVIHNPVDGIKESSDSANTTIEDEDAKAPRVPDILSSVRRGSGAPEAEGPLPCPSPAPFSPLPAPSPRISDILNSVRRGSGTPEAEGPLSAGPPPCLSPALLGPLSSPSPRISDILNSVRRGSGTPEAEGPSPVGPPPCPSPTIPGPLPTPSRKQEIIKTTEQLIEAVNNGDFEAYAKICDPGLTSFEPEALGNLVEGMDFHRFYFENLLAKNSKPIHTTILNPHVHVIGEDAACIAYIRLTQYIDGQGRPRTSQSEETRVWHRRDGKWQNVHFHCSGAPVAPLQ
# [19] = target: PRKX (human) (UniProt P51817)
# [20] = target: ROCK1 (human) (UniProt Q13464)
# [21] = target: MAP3K9 (human) (UniProt P80192)
# [22] = target: TBK1 (human) (UniProt Q9UHD2)
# [23] = target: PRKACA (human) (UniProt P17612)
# [24] = target: TGFBR1 (human) (UniProt P36897)
# [25] = target: CDK3 CCNE1 (human) (UniProt Q00526+P24864)
# [26] = target: TSSK2 (human) (UniProt Q96PF2)
# [27] = target: CDK6 CCND3 (human) (UniProt P30281+Q00534)
# [28] = target: PRKCA (human) (UniProt P17252)
# [29] = target: CHEK1 (human) (UniProt O14757)
# CHEK1 (human), sequence (O14757 whole entry, looked up): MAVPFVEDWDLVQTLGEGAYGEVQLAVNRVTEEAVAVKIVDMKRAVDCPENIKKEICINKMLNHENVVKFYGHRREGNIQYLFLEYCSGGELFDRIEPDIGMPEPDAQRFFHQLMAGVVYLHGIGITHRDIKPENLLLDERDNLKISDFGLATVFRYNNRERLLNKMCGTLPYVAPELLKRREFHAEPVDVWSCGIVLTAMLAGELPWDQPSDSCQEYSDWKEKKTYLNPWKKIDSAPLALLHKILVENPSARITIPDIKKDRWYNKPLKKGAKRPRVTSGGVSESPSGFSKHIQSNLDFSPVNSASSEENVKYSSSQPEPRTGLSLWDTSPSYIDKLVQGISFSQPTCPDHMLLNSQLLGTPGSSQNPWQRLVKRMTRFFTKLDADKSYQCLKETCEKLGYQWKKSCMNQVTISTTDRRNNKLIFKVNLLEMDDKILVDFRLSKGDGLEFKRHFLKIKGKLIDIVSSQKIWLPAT
# [30] = target: HCK (human) (UniProt P08631)
# [31] = target: CDK2 CCNA2 (human) (UniProt P24941+P20248)
# [32] = target: IKBKB (human) (UniProt O14920)
# [33] = target: CAMK2D (human) (UniProt Q13557)
# CAMK2D (human), sequence (Q13557 whole entry, looked up): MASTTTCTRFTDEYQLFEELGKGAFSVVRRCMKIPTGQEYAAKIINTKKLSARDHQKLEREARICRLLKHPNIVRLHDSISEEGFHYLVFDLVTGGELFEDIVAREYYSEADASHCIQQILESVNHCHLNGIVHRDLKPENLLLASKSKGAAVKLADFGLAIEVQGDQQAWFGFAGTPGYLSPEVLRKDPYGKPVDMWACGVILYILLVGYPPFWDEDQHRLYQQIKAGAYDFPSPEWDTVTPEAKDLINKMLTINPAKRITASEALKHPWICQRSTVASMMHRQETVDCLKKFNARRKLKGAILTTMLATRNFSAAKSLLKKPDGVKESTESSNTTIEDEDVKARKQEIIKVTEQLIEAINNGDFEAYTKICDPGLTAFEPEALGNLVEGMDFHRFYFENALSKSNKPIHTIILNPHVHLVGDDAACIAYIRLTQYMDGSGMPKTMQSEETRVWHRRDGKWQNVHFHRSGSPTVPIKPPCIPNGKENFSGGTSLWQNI
# [34] = target: TAOK3 (human) (UniProt Q9H2K8)
# TAOK3 (human), sequence (Q9H2K8 whole entry, looked up): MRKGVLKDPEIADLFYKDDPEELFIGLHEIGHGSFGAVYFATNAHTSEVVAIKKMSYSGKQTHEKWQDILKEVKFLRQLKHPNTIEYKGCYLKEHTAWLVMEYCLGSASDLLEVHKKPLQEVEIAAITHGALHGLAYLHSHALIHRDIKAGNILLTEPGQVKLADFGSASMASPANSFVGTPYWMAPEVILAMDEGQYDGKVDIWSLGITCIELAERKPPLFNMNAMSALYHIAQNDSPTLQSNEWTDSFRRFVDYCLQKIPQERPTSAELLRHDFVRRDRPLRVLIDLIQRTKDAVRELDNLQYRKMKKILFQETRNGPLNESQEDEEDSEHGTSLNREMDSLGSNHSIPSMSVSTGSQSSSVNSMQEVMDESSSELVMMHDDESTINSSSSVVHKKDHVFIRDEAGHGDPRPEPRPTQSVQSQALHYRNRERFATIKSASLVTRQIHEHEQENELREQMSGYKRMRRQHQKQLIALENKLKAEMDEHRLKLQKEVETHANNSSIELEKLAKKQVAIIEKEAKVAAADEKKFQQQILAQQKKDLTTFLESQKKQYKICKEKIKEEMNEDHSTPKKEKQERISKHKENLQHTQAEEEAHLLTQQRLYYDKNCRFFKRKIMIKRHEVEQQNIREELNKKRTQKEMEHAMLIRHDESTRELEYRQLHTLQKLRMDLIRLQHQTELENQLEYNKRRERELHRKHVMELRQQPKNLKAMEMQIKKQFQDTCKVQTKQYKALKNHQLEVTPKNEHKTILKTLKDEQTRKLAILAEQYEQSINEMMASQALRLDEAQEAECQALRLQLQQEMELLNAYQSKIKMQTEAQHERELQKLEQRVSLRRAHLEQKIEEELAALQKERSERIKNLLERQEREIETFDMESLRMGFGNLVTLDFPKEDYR
# [35] = target: DAPK1 (human) (UniProt P53355)
# DAPK1 (human), sequence (P53355 whole entry, looked up): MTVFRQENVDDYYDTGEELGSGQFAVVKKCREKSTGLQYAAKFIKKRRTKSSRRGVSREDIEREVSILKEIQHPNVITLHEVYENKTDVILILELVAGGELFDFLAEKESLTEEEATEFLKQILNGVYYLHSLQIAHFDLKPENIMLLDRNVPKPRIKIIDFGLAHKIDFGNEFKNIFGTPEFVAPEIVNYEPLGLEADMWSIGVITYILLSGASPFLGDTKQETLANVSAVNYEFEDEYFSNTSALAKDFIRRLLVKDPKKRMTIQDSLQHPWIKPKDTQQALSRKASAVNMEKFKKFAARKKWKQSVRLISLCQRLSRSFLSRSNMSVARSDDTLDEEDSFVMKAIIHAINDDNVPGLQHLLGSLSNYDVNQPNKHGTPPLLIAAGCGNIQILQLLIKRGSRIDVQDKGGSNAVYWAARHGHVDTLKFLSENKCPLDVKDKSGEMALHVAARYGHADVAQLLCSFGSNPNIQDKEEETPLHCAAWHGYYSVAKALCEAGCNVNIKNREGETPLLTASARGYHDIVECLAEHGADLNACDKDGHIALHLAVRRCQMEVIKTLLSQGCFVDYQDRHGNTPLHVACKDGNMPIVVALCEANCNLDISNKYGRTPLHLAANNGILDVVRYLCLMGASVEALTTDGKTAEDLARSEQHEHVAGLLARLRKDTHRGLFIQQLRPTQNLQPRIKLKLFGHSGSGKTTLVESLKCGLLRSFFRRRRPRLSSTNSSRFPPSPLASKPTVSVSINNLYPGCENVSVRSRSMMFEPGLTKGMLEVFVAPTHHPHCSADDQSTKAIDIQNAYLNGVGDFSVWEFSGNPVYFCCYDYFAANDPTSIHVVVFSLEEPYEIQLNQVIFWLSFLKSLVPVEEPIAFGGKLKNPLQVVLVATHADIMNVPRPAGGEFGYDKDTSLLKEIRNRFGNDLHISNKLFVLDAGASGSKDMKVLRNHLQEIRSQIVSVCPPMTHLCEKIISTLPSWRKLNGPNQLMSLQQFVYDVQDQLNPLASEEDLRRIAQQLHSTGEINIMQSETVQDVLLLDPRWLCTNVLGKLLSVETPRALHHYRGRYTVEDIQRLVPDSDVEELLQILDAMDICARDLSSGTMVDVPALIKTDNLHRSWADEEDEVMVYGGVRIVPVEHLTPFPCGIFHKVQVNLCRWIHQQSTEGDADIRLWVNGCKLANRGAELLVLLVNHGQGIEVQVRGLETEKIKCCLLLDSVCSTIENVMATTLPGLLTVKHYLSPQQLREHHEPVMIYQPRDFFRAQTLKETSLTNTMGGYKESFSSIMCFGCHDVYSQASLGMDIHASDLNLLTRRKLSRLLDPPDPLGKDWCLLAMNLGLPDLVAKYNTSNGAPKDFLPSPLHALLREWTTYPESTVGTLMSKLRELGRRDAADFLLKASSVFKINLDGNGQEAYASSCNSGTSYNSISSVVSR
# [36] = target: PDGFRA (human) (UniProt P16234)
# [37] = target: SYK (human) (UniProt P43405)
# [38] = target: CDK4 CCND1 (human) (UniProt P24385+P11802)
# [39] = target: JAK2 JH1 JH2 (human) (UniProt O60674)
# [40] = target: CAMK1G (human) (UniProt Q96NX5)
# [41] = target: PAK2 (human) (UniProt Q13177)
# [42] = target: PAK7 (human) (UniProt Q9P286)
# IRAK4 (human), sequence (Q9NWZ3 whole entry, looked up): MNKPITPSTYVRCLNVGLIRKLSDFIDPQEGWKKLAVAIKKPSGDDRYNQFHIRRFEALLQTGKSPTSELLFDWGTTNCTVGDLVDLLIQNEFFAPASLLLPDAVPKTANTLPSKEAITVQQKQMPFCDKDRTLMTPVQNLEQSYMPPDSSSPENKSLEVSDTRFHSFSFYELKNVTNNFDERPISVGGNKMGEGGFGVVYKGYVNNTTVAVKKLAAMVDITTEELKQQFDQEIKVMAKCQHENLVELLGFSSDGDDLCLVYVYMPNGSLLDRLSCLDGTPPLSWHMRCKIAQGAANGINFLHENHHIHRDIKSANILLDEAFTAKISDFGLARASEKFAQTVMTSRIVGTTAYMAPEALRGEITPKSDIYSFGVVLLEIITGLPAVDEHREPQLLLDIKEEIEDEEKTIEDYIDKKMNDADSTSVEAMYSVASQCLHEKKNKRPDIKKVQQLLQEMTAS
Compound,residual activity [2] [%],residual activity [3] [%],residual activity [5] [%],residual activity [6] [%],residual activity [8] [%],residual activity [9] [%],residual activity [12] [%],residual activity [14] [%],residual activity [15] [%],residual activity [16] [%],residual activity [17] [%],residual activity [18] [%],residual activity [19] [%],residual activity [20] [%],residual activity [21] [%],residual activity [23] [%],residual activity [24] [%],residual activity [25] [%],residual activity [26] [%],residual activity [27] [%],further results
O=C1Nc2ccccc2/C1=C\c1c(Cl)[nH]c2ccccc12,93.7,102,96.8,93.5,103,95.6,94.2,96.8,92.6,71.7,90.9,108,106,101,97.9,102,94.4,94.1,113,104,residual activity [1]: 83.4%; residual activity [4]: 93.5%; residual activity [7]: 103%; residual activity [10]: 99.4%; residual activity [11]: 80.5%; residual activity [13]: 89.1%; residual activity [22]: 95.9%; residual activity [28]: 63.2%; residual activity [29]: 93.7%; residual activity [30]: 98.5%; residual activity [31]: 91.5%; residual activity [32]: 106%; residual activity [33]: 86.7%; residual activity [34]: 93.9%; residual activity [35]: 88.1%; residual activity [36]: 88.7%; residual activity [37]: 102%; residual activity [38]: 98.4%; residual activity [39]: 103%
CCN1/C(=C/C(C)=O)Sc2ccc(OC)cc21,91.6,123,90.3,86.8,103,78.5,98.3,95.2,99.3,65.8,96.8,102,96.6,99.3,98.8,98,94.2,91.5,106,104,residual activity [1]: 86.6%; residual activity [4]: 93.8%; residual activity [11]: 76.1%; residual activity [40]: 101%; residual activity [22]: 94.5%; residual activity [28]: 68.7%; residual activity [29]: 87.9%; residual activity [30]: 97.5%; residual activity [31]: 89.7%; residual activity [41]: 105%; residual activity [32]: 102%; residual activity [33]: 92.2%; residual activity [34]: 95.6%; residual activity [35]: 109%; residual activity [36]: 105%; residual activity [37]: 94.8%; residual activity [38]: 92.1%; residual activity [39]: 97.1%; residual activity [42]: 84.7%
C#Cc1cccc(Nc2ncnc3cc(OCCOC)c(OCCOC)cc23)c1,111,93.8,92.5,42,97.6,91.8,95.1,108,98.6,107,20.3,93.1,111,107,111,93.4,99.1,95.6,87.6,117,residual activity [7]: 107%; residual activity [13]: 94.9%; residual activity [40]: 111%; residual activity [28]: 88.6%; residual activity [29]: 95.1%; residual activity [31]: 95.9%; residual activity [41]: 99.1%; residual activity [32]: 83.5%; residual activity [33]: 95.1%; residual activity [34]: 106%; residual activity [35]: 103%; residual activity [36]: 84.4%; residual activity [38]: 96%; residual activity [42]: 97.3%
